Measurements taken from US12419900B2, “Induction of synthetic lethality with epigenetic therapy” (The Johns Hopkins University, priority 2017, dated 2025).

Key:
A549 lung cancer cells = assay: Alamar blue cell viability and growth, alisertib x decitabine dose matrix; assay type: cell-based; conditions: for Percent Growth Inhibition: Alisertib 0 nM
Description: (§1) DU145 prostate cancer cells and A549 lung cancer cells were treated with varying concentrations (0 nM, 10 nM, 50 nM, and 100 nM) of alisertib in addition to varying concentrations of decitabine (0 nM, 50 nM, 100 nM, and 250 nM). Representative data are shown in FIGS. 2A and 2B, as well as the Tables below. […] Formal synergy analyses were performed using the Bliss independence score (where values greater than zero indicate greater than additive effect). […] The graph of FIG. 2A is a growth curve of the DU145 prostate cancer cells for the agents alone (decitabine and alisertib separately), a vehicle control, and the agents in combination (decitabine and alisertib together). […] Likewise, the graph of FIG. 2B is a growth curve of the A549 lung cancer cells for the agents alone (decitabine and alisertib separately), a vehicle control, and the agents in combination (decitabine and alisertib together). […] The synergy analysis of the combination of decitabine and alisertib was evaluated in a series of 18 cancer cell lines (9 prostate, 1 ovarian, 1 lung, 2 colon, 2 central nervous system, and 3 breast cancer cell lines) and 2 non-cancer cell models.

DNMT1 = assay: Protein levels in DU145 cells (data not shown); assay type: cell-based
[1] = test system: residual xenograft tumors; assay: KI-67 and Caspase 3A staining of residual xenograft tumors; assay type: in vivo, nude mice; conditions: decitabine pre-treatment experiment
Description: The proliferative index and apoptotic fraction in residual xenograft tumors from the decitabine pre-treatment experiment was then examined. Sample cells from each of the vehicle control, decitabine pre-treatment alone, alisertib alone, and decitabine pretreatment in combination with alisertib were stained with either KI-67 or Caspase 3A.

DNMT3B = assay: Western Blot in DU145 cells; assay type: cell-based; conditions: 100 nM decitabine, 100 nM alisertib
Description: DNA methyltransferase enzymes comprise a family of enzymes including DNMT1, DNMT3A, and DNMT3B. […] In this study, Western Blot analyses for DNMT3B were performed on DU145 cell tissue sample treated with vehicle control; 100 nM alisertib alone; 100 nM decitabine alone; and 100 nM of decitabine in combination with 100 nM of alisertib.

primary hepatocytes = assay: Cell viability and growth, alisertib x decitabine dose matrix; assay type: cell-based; conditions: for Percent Growth Inhibition: Alisertib 0 nM
Description: The synergy analysis of the combination of decitabine and alisertib was evaluated in a series of 18 cancer cell lines (9 prostate, 1 ovarian, 1 lung, 2 colon, 2 central nervous system, and 3 breast cancer cell lines) and 2 non-cancer cell models. A final cumulative Bliss synergy score was calculated based on the sum of the synergy values from each of the 16 combinations of 0 nM, 10 nM, 50 nM, and 100 nM of alsertib together with 0 nM, 50 nM, 100 nM, and 250 nM of decitabine.

Satellite 2 sequences = assay: Bisulfite genomic sequencing of repetitive elements; assay type: cell-based; conditions: DU145; vehicle control 45.09%
[2] = test system: DU145 prostate cancer cells; assay: Alamar blue cell viability and growth, alisertib x decitabine dose matrix; assay type: cell-based; conditions: for Percent Growth Inhibition: Alisertib 0 nM
Description: as §1, with “below. […] In each panel, a dose response of each drug alone and in combination was used in Alamar blue cell viability assays.” for “below.”

DNMT3A = assay: Protein levels in DU145 cells (data not shown); assay type: cell-based
DU145 xenograft tumor = assay: In vivo xenograft study of DU145, decitabine and alisertib; design: species or system nude mice; conditions: for tumor growth (FIG. 5A): decitabine alone, alisertib high and low dose alone, combinations concurrent or primed, low and high dose alisertib; for xenograft tissue growth or survival compared to the vehicle control: single agent therapy at the doses tested (decitabine 0.75 mg/kg; alisertib 15 or 25 mg/kg)
Description: Using in vivo xenograft studies of the DU145 prostate cancer cell line, the effect was explored of the treatment of two dose levels of alisertib alone or in combination with decitabine using two different treatment time schedules over a period of seven weeks. First, nude mice were inoculated with DU145 cells that were allowed to incubate for 10-12 days to establish xenograft tumor. The inoculated mice were then treated concomitantly with both a high dose and a low dose of alisertib and decitabine in the first two weeks or primed with decitabine alone for two weeks followed by alisertib alone in the first cycle. The dose of decitabine was held constant at 0.75 mg/kg and given with either low-dose (15 mg/kg) or high-dose (25 mg/kg) alisertib, as indicated in FIG. 4. The cumulative number of doses of decitabine and alisertib was the same in all combination treatment arms in both schedules.

[3] = In vivo toxicity profile of treated mice; conditions: FIGS. 7D and 7E
Description: The toxicity profile of the treated mice was observed, and the animals were weighed over the course of the experiment.

Aurora Kinase A (AURKA) = assay: Western Blot in DU145 cells; assay type: cell-based; conditions: 100 nM decitabine, 100 nM alisertib
Description: Western Blot analyses for AURKA were performed on DU145 cell tissue sample treated with vehicle control; 100 nM alisertib alone; 100 nM decitabine alone; and 100 nM of decitabine in combination with 100 nM of alisertib.

Q: Which inhibition at 0.01 µM (A549 lung cancer cells; Homo sapiens, DAC 0 nM, Alisertib 10 nM, read-out: Percent Growth Inhibition) does the source give for `COc1cc(Nc2ncc3c(n2)-c2ccc(Cl)cc2C(c2c(F)cccc2OC)=NC3)ccc1C(=O)O` [alisertib] here?
A: The inhibition at 0.01 µM was 0%.

Q: And the inhibition at 0.05 µM (A549 lung cancer cells; Homo sapiens, DAC 0 nM, Alisertib 50 nM, read-out: Percent Growth Inhibition)?
A: The inhibition at 0.05 µM was 0%.

Q: And the inhibition at 0.1 µM (A549 lung cancer cells; Homo sapiens, DAC 0 nM, Alisertib 100 nM, read-out: Percent Growth Inhibition)?
A: Its inhibition at 0.1 µM is 1%.

Q: What about the DNMT1 levels (DNMT1) of the same compound?
A: Its DNMT1 levels is “did not significantly affect”.

Q: And the “Caspase 3A staining (apoptosis)” value [1]?
A: Its value is “almost no alteration”.

Q: And the “KI-67 staining (cell proliferation)” value [1]?
A: The value was “almost no alteration”.

Q: And the DNMT3B levels (DNMT3B)?
A: Its DNMT3B levels is “significantly reduce”.

Q: And the inhibition at 0.01 µM (primary hepatocytes; Hepatocyte, DAC 0 nM, Alisertib 10 nM, read-out: Percent Growth Inhibition)?
A: Its inhibition at 0.01 µM is 10%.

Q: What about the inhibition at 0.05 µM (primary hepatocytes; Hepatocyte, DAC 0 nM, Alisertib 50 nM, read-out: Percent Growth Inhibition) of the same compound?
A: Its inhibition at 0.05 µM is 21%.

Q: What about the inhibition at 0.1 µM (primary hepatocytes; Hepatocyte, DAC 0 nM, Alisertib 100 nM, read-out: Percent Growth Inhibition) of the same compound?
A: The inhibition at 0.1 µM was 15%.

Q: And the “percent of CpG Satellite 2 methylation” value (Satellite 2 sequences)?
A: The value was 40.6%.

Q: And the “growth inhibition of DU-145 cells in combination with decitabine” value ([2]; Aurora kinase inhibitor + decitabine)?
A: The value was “synergistic growth inhibition”.

Q: And the inhibition at 0.01 µM ([2]; Homo sapiens, DU-145, DU145, DAC 0 nM, Alisertib 10 nM, read-out: Percent Growth Inhibition)?
A: Its inhibition at 0.01 µM is 0%.

Q: What about the inhibition at 0.05 µM ([2]; Homo sapiens, DU-145, DU145, DAC 0 nM, Alisertib 50 nM, read-out: Percent Growth Inhibition) of the same compound?
A: Its inhibition at 0.05 µM is 0%.

Q: And the inhibition at 0.1 µM ([2]; Homo sapiens, DU-145, DU145, DAC 0 nM, Alisertib 100 nM, read-out: Percent Growth Inhibition)?
A: Its inhibition at 0.1 µM is 2%.

Q: What about the DNMT3A levels (DNMT3A) of the same compound?
A: The DNMT3A levels was “did not significantly affect”.

Q: And the “Fold Change in Tumor Size, Mean” value (DU145 xenograft tumor; Alisertib high dose 25 mg/kg alone, week 0)?
A: Its value is 1.

Q: What about the “Fold Change in Tumor Size, Mean” value (DU145 xenograft tumor; Alisertib high dose 25 mg/kg alone, week 1) of the same compound?
A: The value was 1.69.

Q: What about the “Fold Change in Tumor Size, Mean” value (DU145 xenograft tumor; Alisertib high dose 25 mg/kg alone, week 2) of the same compound?
A: The value was 2.35.

Q: And the “Fold Change in Tumor Size, Mean” value (DU145 xenograft tumor; Alisertib high dose 25 mg/kg alone, week 3)?
A: Its value is 3.16.

Q: What about the “Fold Change in Tumor Size, Mean” value (DU145 xenograft tumor; Alisertib high dose 25 mg/kg alone, week 4) of the same compound?
A: The value was 5.08.

Q: What about the “Fold Change in Tumor Size, Mean” value (DU145 xenograft tumor; Alisertib high dose 25 mg/kg alone, week 5) of the same compound?
A: Its value is 6.47.

Q: And the “Fold Change in Tumor Size, Mean” value (DU145 xenograft tumor; Alisertib high dose 25 mg/kg alone, week 6)?
A: The value was 8.46.

Q: And the “Fold Change in Tumor Size, Mean” value (DU145 xenograft tumor; Alisertib high dose 25 mg/kg alone, week 7)?
A: Its value is 9.98.

Q: What about the “Fold Change in Tumor Size, Mean” value (DU145 xenograft tumor; Alisertib low dose 15 mg/kg alone, week 0) of the same compound?
A: The value was 1.

Q: What about the “Fold Change in Tumor Size, Mean” value (DU145 xenograft tumor; Alisertib low dose 15 mg/kg alone, week 1) of the same compound?
A: Its value is 1.31.

Q: And the “Fold Change in Tumor Size, Mean” value (DU145 xenograft tumor; Alisertib low dose 15 mg/kg alone, week 2)?
A: Its value is 2.25.

Q: What about the “Fold Change in Tumor Size, Mean” value (DU145 xenograft tumor; Alisertib low dose 15 mg/kg alone, week 3) of the same compound?
A: The value was 2.96.

Q: And the “Fold Change in Tumor Size, Mean” value (DU145 xenograft tumor; Alisertib low dose 15 mg/kg alone, week 4)?
A: The value was 4.33.

Q: And the “Fold Change in Tumor Size, Mean” value (DU145 xenograft tumor; Alisertib low dose 15 mg/kg alone, week 5)?
A: Its value is 5.12.

Q: What about the “Fold Change in Tumor Size, Mean” value (DU145 xenograft tumor; Alisertib low dose 15 mg/kg alone, week 6) of the same compound?
A: The value was 6.02.

Q: What about the “Fold Change in Tumor Size, Mean” value (DU145 xenograft tumor; Alisertib low dose 15 mg/kg alone, week 7) of the same compound?
A: The value was 7.54.

Q: What about the “tumor growth (FIG. 5A)” value (DU145 xenograft tumor) of the same compound?
A: Its value is “continued to grow at a significant rate”.

Q: What about the “xenograft tissue growth or survival compared to the vehicle control” value (DU145 xenograft tumor) of the same compound?
A: Its value is “did not significantly alter”.

Q: And the “AST and ALT (liver function)” value [3]?
A: Its value is “elevated”.

Q: With `Nc1ncn([C@H]2C[C@H](O)[C@@H](CO)O2)c(=O)n1` [decitabine, 5-aza-2′-deoxycytidine] as the compound, how does the AURKA protein levels (Aurora Kinase A (AURKA)) read?
A: Its AURKA protein levels is “significantly induce”.

Q: And the “Percent Growth Inhibition” value (A549 lung cancer cells; DAC 50 nM)?
A: Its value is 0.03.

Q: What about the “Percent Growth Inhibition” value (A549 lung cancer cells; DAC 100 nM) of the same compound?
A: The value was 0.

Q: And the “Percent Growth Inhibition” value (A549 lung cancer cells; DAC 250 nM)?
A: The value was 0.14.

Q: What about the DNMT1 levels (DNMT1) of the same compound?
A: The DNMT1 levels was “significantly reduced”.

Q: And the “Caspase 3A staining (apoptosis)” value [1]?
A: Its value is “almost no alteration”.

Q: And the “KI-67 staining (cell proliferation)” value [1]?
A: The value was “almost no alteration”.

Q: And the DNMT3B levels (DNMT3B)?
A: Its DNMT3B levels is “did not significantly alter”.

Q: What about the “Percent Growth Inhibition” value (primary hepatocytes; DAC 50 nM) of the same compound?
A: The value was 0.16.

Q: And the “Percent Growth Inhibition” value (primary hepatocytes; DAC 100 nM)?
A: The value was 0.30.

Q: And the “Percent Growth Inhibition” value (primary hepatocytes; DAC 250 nM)?
A: The value was 0.29.

Q: And the “percent of CpG Satellite 2 methylation” value (Satellite 2 sequences)?
A: The value was 33.33%.

Q: And the “Percent Growth Inhibition” value ([2]; DU145, DAC 50 nM)?
A: Its value is 0.04.

Q: And the “Percent Growth Inhibition” value ([2]; DU145, DAC 100 nM)?
A: Its value is 0.08.

Q: What about the “Percent Growth Inhibition” value ([2]; DU145, DAC 250 nM) of the same compound?
A: The value was 0.77.

Q: And the “cell survival in tissue culture” value ([2]; DU145, low dose decitabine 100 nM)?
A: The value was “most of the cells survived”.

Q: And the “Fold Change in Tumor Size, Mean” value (DU145 xenograft tumor; DAC 0.75 mg/kg alone, week 0)?
A: The value was 1.

Q: What about the “Fold Change in Tumor Size, Mean” value (DU145 xenograft tumor; DAC 0.75 mg/kg alone, week 1) of the same compound?
A: Its value is 1.31.

Q: And the “Fold Change in Tumor Size, Mean” value (DU145 xenograft tumor; DAC 0.75 mg/kg alone, week 2)?
A: The value was 1.90.

Q: What about the “Fold Change in Tumor Size, Mean” value (DU145 xenograft tumor; DAC 0.75 mg/kg alone, week 3) of the same compound?
A: Its value is 2.68.

Q: And the “Fold Change in Tumor Size, Mean” value (DU145 xenograft tumor; DAC 0.75 mg/kg alone, week 4)?
A: The value was 3.81.

Q: And the “Fold Change in Tumor Size, Mean” value (DU145 xenograft tumor; DAC 0.75 mg/kg alone, week 5)?
A: Its value is 4.60.

Q: What about the “Fold Change in Tumor Size, Mean” value (DU145 xenograft tumor; DAC 0.75 mg/kg alone, week 6) of the same compound?
A: The value was 5.10.

Q: And the “Fold Change in Tumor Size, Mean” value (DU145 xenograft tumor; DAC 0.75 mg/kg alone, week 7)?
A: The value was 5.49.

Q: What about the “tumor growth (FIG. 5A)” value (DU145 xenograft tumor) of the same compound?
A: The value was “continued to grow at a significant rate”.

Q: What about the “xenograft tissue growth or survival compared to the vehicle control” value (DU145 xenograft tumor) of the same compound?
A: The value was “did not significantly alter”.
